Test results taken from PMC11207335, “In Vitro Metabolism and Transport Characteristics of Zastaprazan” (Pharmaceutics, 2024).

What was measured:
OCT1 = molecular target: T1, OCT1 (Homo sapiens, UniProt O15245); assay: Uptake into HEK293 cells expressing OCT1; details: for Uptake Rate / Fold-Change: 6 μM; for Substrate: OCT1; for Fold-Change: vs HEK293-mock
T1 sequence (O15245 1-554): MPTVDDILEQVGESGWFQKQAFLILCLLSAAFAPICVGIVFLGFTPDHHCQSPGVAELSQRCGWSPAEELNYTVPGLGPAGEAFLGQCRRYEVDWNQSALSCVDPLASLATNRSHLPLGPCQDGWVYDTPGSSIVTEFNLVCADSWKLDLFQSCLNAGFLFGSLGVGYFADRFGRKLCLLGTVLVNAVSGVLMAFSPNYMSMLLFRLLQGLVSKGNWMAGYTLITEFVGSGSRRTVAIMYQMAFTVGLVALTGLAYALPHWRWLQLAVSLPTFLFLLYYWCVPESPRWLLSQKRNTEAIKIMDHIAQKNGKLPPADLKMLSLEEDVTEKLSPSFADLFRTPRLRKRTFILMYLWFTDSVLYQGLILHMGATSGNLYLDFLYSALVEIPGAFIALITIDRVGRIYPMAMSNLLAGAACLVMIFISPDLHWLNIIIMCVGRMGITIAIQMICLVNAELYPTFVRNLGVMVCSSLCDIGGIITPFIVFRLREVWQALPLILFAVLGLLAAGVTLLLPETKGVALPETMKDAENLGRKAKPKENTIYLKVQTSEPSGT

HEK293-mock cells = assay: Uptake into HEK293-mock cells; details: 6 μM
OATP1B1 = molecular target: T2, OATP1B1 (Homo sapiens, UniProt Q9Y6L6); assay: Uptake into HEK293 cells expressing OATP1B1; details: for Uptake Rate / Fold-Change: 6 μM; for Substrate: OATP1B1; for Fold-Change: vs HEK293-mock
T2 sequence (Q9Y6L6 1-691): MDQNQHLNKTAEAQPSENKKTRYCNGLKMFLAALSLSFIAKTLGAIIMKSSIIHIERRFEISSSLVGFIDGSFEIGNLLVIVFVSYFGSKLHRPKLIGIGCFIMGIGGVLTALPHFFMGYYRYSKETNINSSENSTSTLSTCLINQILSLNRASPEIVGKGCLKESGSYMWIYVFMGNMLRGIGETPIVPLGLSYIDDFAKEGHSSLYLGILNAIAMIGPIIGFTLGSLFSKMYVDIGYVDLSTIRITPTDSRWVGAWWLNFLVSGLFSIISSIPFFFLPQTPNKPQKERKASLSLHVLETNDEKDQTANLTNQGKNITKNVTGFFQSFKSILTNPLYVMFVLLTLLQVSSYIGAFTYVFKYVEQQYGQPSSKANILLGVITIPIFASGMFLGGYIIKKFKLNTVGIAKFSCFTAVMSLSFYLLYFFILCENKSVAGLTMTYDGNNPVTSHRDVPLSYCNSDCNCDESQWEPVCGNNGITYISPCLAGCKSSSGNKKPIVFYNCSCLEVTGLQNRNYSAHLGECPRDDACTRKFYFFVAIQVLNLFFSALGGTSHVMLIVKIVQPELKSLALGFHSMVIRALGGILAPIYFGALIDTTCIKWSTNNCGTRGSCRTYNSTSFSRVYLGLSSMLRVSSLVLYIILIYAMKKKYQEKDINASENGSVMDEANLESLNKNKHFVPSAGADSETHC

MATE2K = MATE2K (Homo sapiens, UniProt Q86VL8); assay: Uptake into HEK293 cells expressing MATE2K; details: for Uptake Rate / Fold-Change: 6 μM, HEK293-MATE2K; for Substrate: MATE2K; for Fold-Change: vs HEK293-mock
gastric acid secretion = details: lumen-perfused rat model, among JP-1366, vonoprazan, and tegoprazan; cited from earlier work
OATP1B3 = molecular target: T3, OATP1B3 (Homo sapiens, UniProt Q9NPD5); assay: Uptake into HEK293 cells expressing OATP1B3; details: for Uptake Rate / Fold-Change: 6 μM; for Substrate: OATP1B3; for Fold-Change: vs HEK293-mock
T3 sequence (Q9NPD5 1-702): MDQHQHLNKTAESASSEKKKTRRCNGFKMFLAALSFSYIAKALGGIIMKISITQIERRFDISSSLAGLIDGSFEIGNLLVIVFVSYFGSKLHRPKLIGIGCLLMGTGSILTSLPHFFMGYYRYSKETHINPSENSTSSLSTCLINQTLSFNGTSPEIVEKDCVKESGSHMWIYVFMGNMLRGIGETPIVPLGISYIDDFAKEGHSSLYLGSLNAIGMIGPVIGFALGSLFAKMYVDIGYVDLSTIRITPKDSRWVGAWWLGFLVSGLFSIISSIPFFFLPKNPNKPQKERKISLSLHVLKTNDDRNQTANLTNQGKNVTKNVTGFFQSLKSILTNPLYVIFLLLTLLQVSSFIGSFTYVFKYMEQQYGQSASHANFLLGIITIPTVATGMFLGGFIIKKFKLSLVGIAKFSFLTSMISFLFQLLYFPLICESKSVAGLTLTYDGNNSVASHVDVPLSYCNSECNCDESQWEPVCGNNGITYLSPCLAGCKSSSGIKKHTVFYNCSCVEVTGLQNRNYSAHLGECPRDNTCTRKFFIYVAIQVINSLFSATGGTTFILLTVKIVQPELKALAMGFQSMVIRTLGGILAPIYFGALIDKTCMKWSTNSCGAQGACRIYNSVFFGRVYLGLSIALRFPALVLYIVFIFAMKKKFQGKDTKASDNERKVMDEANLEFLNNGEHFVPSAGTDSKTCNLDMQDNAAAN

MATE2K, sequence (Q86VL8 1-566 isoform Q86VL8-3): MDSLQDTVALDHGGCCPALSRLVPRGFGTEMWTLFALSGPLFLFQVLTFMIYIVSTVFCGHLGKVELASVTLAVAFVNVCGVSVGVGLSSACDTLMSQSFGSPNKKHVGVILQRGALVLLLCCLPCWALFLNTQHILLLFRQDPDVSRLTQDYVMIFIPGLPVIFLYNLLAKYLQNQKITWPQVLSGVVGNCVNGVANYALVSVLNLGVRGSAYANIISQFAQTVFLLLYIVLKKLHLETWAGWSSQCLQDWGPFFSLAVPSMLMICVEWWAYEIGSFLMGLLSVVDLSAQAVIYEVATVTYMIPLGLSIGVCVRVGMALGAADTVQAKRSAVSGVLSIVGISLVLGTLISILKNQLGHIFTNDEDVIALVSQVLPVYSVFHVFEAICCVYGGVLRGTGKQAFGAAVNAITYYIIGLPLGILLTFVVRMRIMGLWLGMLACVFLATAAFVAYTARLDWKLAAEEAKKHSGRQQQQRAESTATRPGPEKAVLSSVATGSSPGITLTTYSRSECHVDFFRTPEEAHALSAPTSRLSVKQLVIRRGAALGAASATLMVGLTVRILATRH

## Cc1cccc(C)c1CNc1cc(C(=O)N2CCC2)cn2c(C)c(C)nc12 [JP-1366, 1-azetidinyl(8-(((2,6-dimethylphenyl)methyl)amino)-2,3-dimethylimidazo(1,2-a)pyridin-6-yl)methanone]
OCT1; HEK293-OCT1, cimetidine 100 μM
  Uptake Rate: 82.01 ± 3.72 pmol/min/10^5 Cells
OCT1; HEK293-OCT1, control
  Uptake Rate: 82.43 ± 3.59 pmol/min/10^5 Cells
OCT1
  Substrate: No
HEK293-mock cells; cimetidine 100 μM
  Uptake Rate: 55.35 ± 2.24 pmol/min/10^5 Cells
HEK293-mock cells; control
  Uptake Rate: 51.53 ± 3.16 pmol/min/10^5 Cells
HEK293-mock cells; probenecid 20 μM
  Uptake Rate: 54.22 ± 1.90 pmol/min/10^5 Cells
HEK293-mock cells; rifampin 20 μM
  Uptake Rate: 57.80 ± 0.89 pmol/min/10^5 Cells
OATP1B1; HEK293-OATP1B1, control
  Uptake Rate: 52.79 ± 2.39 pmol/min/10^5 Cells
OATP1B1; HEK293-OATP1B1, rifampin 20 μM
  Uptake Rate: 53.60 ± 3.73 pmol/min/10^5 Cells
OATP1B1
  Substrate: No
MATE2K; cimetidine 100 μM
  Uptake Rate: 72.81 ± 3.33 pmol/min/10^5 Cells
MATE2K; control
  Uptake Rate: 59.19 ± 3.66 pmol/min/10^5 Cells
MATE2K
  Substrate: No
Gastric acid secretion
  gastric acid secretion inhibitory effect: fastest-acting and superior gastric acid secretion inhibitory effect
OATP1B3; HEK293-OATP1B3, control
  Uptake Rate: 44.54 ± 0.74 pmol/min/10^5 Cells
OATP1B3; HEK293-OATP1B3, rifampin 20 μM
  Uptake Rate: 52.67 ± 2.99 pmol/min/10^5 Cells
OATP1B3
  Substrate: No

## Cc1cccc(CO)c1CNc1cc(C(=O)N2CCC2)cn2c(C)c(C)nc12 [M1, azetidin-1-yl(8-((2-(hydroxymethyl)-6-methyl-benzyl)amino)-2,3-dimethylimidazo[1,2-a]pyridin-6-yl)methanone]
OCT1; HEK293-OCT1, cimetidine 100 μM
  Uptake Rate: 82.01 ± 3.72 pmol/min/10^5 Cells
  Fold-Change: 1.6
OCT1; HEK293-OCT1, control
  Uptake Rate: 82.43 ± 3.59 pmol/min/10^5 Cells
  Fold-Change: 1.6
OCT1
  Substrate: No
HEK293-mock cells; cimetidine 100 μM
  Fold-Change: 1.1
  Uptake Rate: 55.35 ± 2.24 pmol/min/10^5 Cells
HEK293-mock cells; control
  Fold-Change: 1.0
  Uptake Rate: 51.53 ± 3.16 pmol/min/10^5 Cells
HEK293-mock cells; probenecid 20 μM
  Fold-Change: 1.1
  Uptake Rate: 54.22 ± 1.90 pmol/min/10^5 Cells
HEK293-mock cells; rifampin 20 μM
  Fold-Change: 1.1
  Uptake Rate: 57.80 ± 0.89 pmol/min/10^5 Cells
OATP1B1; HEK293-OATP1B1, control
  Uptake Rate: 52.79 ± 2.39 pmol/min/10^5 Cells
  Fold-Change: 1.0
OATP1B1; HEK293-OATP1B1, rifampin 20 μM
  Uptake Rate: 53.60 ± 3.73 pmol/min/10^5 Cells
  Fold-Change: 1.0
OATP1B1
  Substrate: No
MATE2K; cimetidine 100 μM
  Uptake Rate: 72.81 ± 3.33 pmol/min/10^5 Cells
  Fold-Change: 1.4
MATE2K; control
  Uptake Rate: 59.19 ± 3.66 pmol/min/10^5 Cells
  Fold-Change: 1.1
MATE2K
  Substrate: No
OATP1B3; HEK293-OATP1B3, control
  Uptake Rate: 44.54 ± 0.74 pmol/min/10^5 Cells
  Fold-Change: 0.9
OATP1B3; HEK293-OATP1B3, rifampin 20 μM
  Uptake Rate: 52.67 ± 2.99 pmol/min/10^5 Cells
  Fold-Change: 1.0
OATP1B3
  Substrate: No
